According to patent US5886207A, “Optically active compound of flubrocythrinate, a process for preparing the same” (Shanghai Zhongxi Pharmaceutical Co. Ltd., priority 1994, dated 1999):

Legend:
Format in all cases: in vivo
[1] = tested on: tetranychus telarius Linnaeus and wheat aphid; experiment: Overall comparison of efficacy and dosage with compound I from Tables 1 and 2; conditions: Tables 1 and 2, in words
Excerpt: (§1) Take the robust mature female mites, and paste the back of the mite on a piece of glass with a transparent adhesive tape. Every piece of glass pasted with 40 mites, and three pieces of glasses for each concentration, each insecticide repeated three times at five concentration. […] Immerse the above glasses in a insecticidal solution of specified concentration for 5 seconds and take out from the solution. Use a piece of absorbent paper to absorb the surplus insecticidal solution, transfer the above treated glasses to a culture dish previously fitted with a wetted cotton wool. The culture dish is kept in a thermostat oven at 28° C. for 48 hours, and inspect the number of dead mites under binocular dissecteined microscope. Standard for death judgement: use a needle to move the body of the mite, wholly inflexible judged as death.
(§2) Weigh third instar larva on a swift electronic balance to obtain 8-18 mg/larva, and 0.083 μl of the insecticide solution in acetone at specified concentration with a microsyringe to the dorsal thorax of the larva, and then transfer the larva into a finger-type tube charged with artificial fodder, each tube for one larva, each concentration for 30 tubes, each insecticide run at 5 concentrations, and repeat 3 times. Place the tubes in a thermostat oven at 27° C. for 48 hours, and inspect the number of dead larva. Standard for death judgement: judge the wholly inflexible test aphid as death.
The compound A and Ib are 2.11 times and 1.78 times as toxic as compound I against tetranychus telarius Linnaeus, and are 1.95 times and 1.88 times as toxic as compound I against wheat aphid respectively. Therefore compound Ia has the preferred effect, and the dosage needed is the lowest; the next one are A and compound Ib.

[2] = tested on: tetranychus telarius Linnaeus; experiment: Laboratory toxicity test against tetranychus telarius Linnaeus (Pasting Method); conditions: for LC50 / LC90: mature female mites, glass slide immersion 5 seconds, time 24 (hour); for times as toxic as compound I against tetranychus telarius Linnaeus: relative to compound I, from Table 1
Excerpt: 1. Laboratory toxicity test against tetranychus telarius Linnaeus
(1) Method of manipulation: (Pasting Method)
as §1, with “The culture dish is kept in a thermostat oven at 28° C. for 48 hours, and inspect the number of dead mites under binocular dissecteined microscope.” left out

wheat aphid = experiment: Laboratory toxicity test against wheat aphid (Topic application method); conditions: for times as toxic as compound I against wheat aphid: relative to compound I, from Table 2; for LD50: third instar larva, topical 0.083 μl in acetone, 27° C., 48 hours
Protocol: as §2, with “2. Laboratory toxicity test against wheat aphid (1) Method of manipulation (Topic application method) Weigh” for “Weigh”

SMILES	dosage compared with compound I [1]	efficacy compared with compound I [1]	LC50 [2] [ppm]	LC90 [2] [ppm]	times as toxic as compound I against tetranychus telarius Linnaeus [2] [times]	times as toxic as compound I against wheat aphid (wheat aphid) [times]	LD50 (wheat aphid) [μg/larva]
CC(C)[C@H](C(=O)O[C@H](C#N)c1cccc(Oc2ccc(Br)cc2)c1)c1ccc(OC(F)F)cc1 [Ia, (S)-α-Cyano-3-(4-bromophenoxy)benzyl-(S)-2-(4-difluoromethoxyphenyl)-3-methylbutyrate]	lower than that of compound I	apparently better than compound I	4	52	4.46	4.06	0.0001783
CC(C)[C@H](C(=O)O[C@H](C#N)c1cccc(Oc2ccc(Br)cc2)c1)c1ccc(OC(F)F)cc1 (relative stereo) [A]	lower than that of compound I	apparently better than compound I	10	110	2.11	1.95	0.0003712
CC(C)[C@H](C(=O)O[C@@H](C#N)c1cccc(Oc2ccc(Br)cc2)c1)c1ccc(OC(F)F)cc1 [Ib, (R)-α-Cyano-3-(4-bromophenoxy)benzyl-(S)-2-(4-difluoromethoxyphenyl)-3-methylbutyrate]	lower than that of compound I	apparently better than compound I	12	130	1.78	1.88	0.000385
CC(C)[C@@H](C(=O)O[C@@H](C#N)c1cccc(Oc2ccc(Br)cc2)c1)c1ccc(OC(F)F)cc1 [Id, (R)-α-Cyano-3-(4-bromophenoxy)benzyl (R)-2-(4-difluoromethoxyphenyl)-3-methylbutyrate]	–	–	1200	8000	–	–	0.05047
CC(C)C(C(=O)OC(C#N)c1cccc(Oc2ccc(Br)cc2)c1)c1ccc(OC(F)F)cc1 (stereo not drawn) [compound I, α-cyano-3-(4-bromophenoxy) benzyl-2-(4-difluoromethoxyphenyl)-3-methylbutyrate, reference compound]	–	–	19	232	–	–	0.0007247
CC(C)[C@@H](C(=O)O[C@H](C#N)c1cccc(Oc2ccc(Br)cc2)c1)c1ccc(OC(F)F)cc1 [Ic]	–	–	220	2580	–	–	0.009252
